Assay [1] has as its system TNF-α production in rat primary astrocytes. As to the kind of experiment: LPS-induced TNF-α production (ELISA) in rat primary astrocytes. The note with it: Astrocytes, LPS 1.0 μg/ml, 24 h. Format: cell-based. Here is the method:
Determination of TNF-α and IL-1β in culture supernatants Cells were stimulated with LPS in serum-free media for 24 h in the presence or absence of forskolin or rolipram, and concentrations of TNF-α and IL-1β were measured in culture supernatants by using high-sensitivity enzyme-linked immunosorbent assay (R&D Systems, USA) according to the manufacturer's instructions.
On the technique in general: In an ELISA, binding on a coated surface is turned into a signal by an enzyme label.

Assay [2] deals with PP 1/2A. The experiment in a line: PP1/2A activity in homogenates of LPS-treated astrocytes. It is filed as cell-based, rat. The note with it: LPS 1.0 μg/ml, 30 min; okadaic acid 0-20 nM. Here is the method: In vitro PP1/2A assay The extraction and assay for PP1/2A were performed as described (Begum and Ragolia, 1996). Control and treated cells were scraped off the dishes with 0.3 ml of phosphatase extraction buffer containing 20 mM imidazole-HCl, 2 mM EDTA, 2 mM EGTA, pH 7.0, with 10 μg/ml each of aprotinin, leupeptin, antipain, soybean trypsis inhibitor, 1 mM benzamide, and 1 mM PMSF. The cells were sonicated for 10 s and centrifuged at 2000×g for 5 min, and the supernatants were used for the assay of phosphatase activities using the protein phosphatase assay kit (Life Technologies, Inc.) according to the manufacturer's protocol.

The test system of assay [3] is iNOS promoter. As to the kind of experiment: iNOS promoter-derived CAT activity in rat primary astrocytes. Format: cell-based. The note with it: LPS 1.0 μg/ml, 14 h. Here is the method:
(§1) Construction of reporter plasmid, transfection and assay of chloramphenicol acetyl transferase activity The CAT (chloramphenicol acetyl transferase) under the control of nitric oxide synthase promoter (iNOS) was created by subcloning 1.5 kb promoter from pGEM-NOS at Sph I and Sal I restriction sites of pCAT-basic vector (Promega). […]. The cells were transfected by using the lipofectin (Life Technologies Inc., USA) method, as has been described in manufacturer's protocol, with 2 μg of reporter plasmid. They were then stimulated 24 h after transfection and harvested after 14 h of stimulation. CAT activity was measured as has been described.

Assay [4] concerns iNOS promoter. The experiment in a line: iNOS promoter-derived CAT activity in rat macrophages. It is filed as cell-based. Conditions: LPS 1.0 μg/ml, 14 h. Here is the method:
as §1

In assay [5] the test system is TNF-α production in rat resident macrophages. As to the kind of experiment: LPS-/IFN-γ-induced TNF-α production (ELISA) in rat macrophages. Format: cell-based. Conditions: Macrophages, LPS 1.0 μg/ml, 24 h.
The subject of assay [6] is NO production in rat resident macrophages. The experiment in a line: LPS-/cytokine-induced NO production (nitrite) in rat resident peritoneal macrophages. It is filed as cell-based. Conditions: LPS 1.0 μg/ml, 24 h. Here is the method: Isolation of Rat Macrophages and Induction of NO Production Resident macrophages were obtained from rats by peritoneal lavage with sterile RPMI 1640 medium containing 1% fetal bovine serum and 100 μg/ml gentamicin (Wang et al., 1995). Cells were washed three times with RPMI 1640 at 4° C. All cell cultures were maintained at 37° C. in a humidified incubator containing 5% CO2 in air. Macrophages, at a concentration of 2×10^6/ml in RPMI 1640 medium containing L-glutamine and gentamicin, were added in volumes of 800 μl to a 35 mm plate. After 1 h, nonadherent cells were removed by washing and 800 μl of serum-free RPMI 1640 medium with various stimuli were added to the adherent cells. After 24 h incubation in 5% CO2 in air at 37° C., the culture supernatants were transferred to measure NO production (Geng et al., 1995; Wang et al., 1995).
Isolation of rat macrophages and induction of NO production Resident macrophages were obtained from rat by peritoneal lavage with sterile RPMI 1640 medium containing 1% fetal bovine serum and 100 μg/ml gentamicin as described herein. Cells were washed three times with RPMI 1640 at 4° C. All cell cultures were maintained at 37° C. in a humidified incubator containing 5% CO2 in air. Macrophages at a concentration of 2×10^6/ml in RPMI 1640 medium containing L-glutamine and gentamicin were added in volumes of 800 μl to a 35 mm plate. After 1 h, nonadherent cells were removed by washing and 800 μl of serum-free RPMI 1640 medium with various stimuli were added to the adherent cells. After incubation in 5% CO2 in air at 37° C., culture supernatants were transferred to measure NO production.
Isolation of rat macrophages and induction of NO production Resident macrophages were obtained from rat by peritoneal lavage with sterile RPMI 1640 medium containing 1% FBS and 100 μg/ml gentamicin. Cells were washed three times with RPMI 1640 at 4° C., and were maintained at 37° C. in a humidified incubator containing 5% CO2 in air. Macrophages at a concentration of […] in RPMI 1640 medium containing L-glutamine and gentamicin were added in volumes of 800 μl to a 35-mm plate. After 1 h, nonadherent cells were removed by washing, and 800 μl of serum-free RPMI 1640 medium with various stimuli was added to the adherent cells. After 24 h the culture supernatants were transferred to measure NO production.
Protein was measured (Bradford, 1976).

For assay [7], the system named is NO production in rat C6 glial cells. The experiment in a line: LPS-/cytokine-induced NO production (nitrite) in C6 glial cells. Conditions: 2 nM calyculin A along with LPS and cytokines, 24 h. Format: cell-based.
The subject of assay [8] is iNOS. The experiment in a line: Expression of iNOS protein (immunoblot) and mRNA (Northern) in rat primary astrocytes. Format: cell-based. Conditions: LPS 1.0 μg/ml. Here is the method:
Immunoblot analysis for iNOS Following 24 h incubation in the presence or absence of stimuli by different cytokines or LPS, macrophages were scraped off, washed with Hank's buffer, and homogenized in 50 mM Tris-HCl (pH 7.4) containing protease inhibitors ([…] PMSF, 5 μg/ml aprotinin, 5 μg/ml pepstatin A, and 5 μg/ml leupeptin). After electrophoresis the proteins were transferred onto a nitrocellulose membrane, and the iNOS band was visualized by immunoblotting with antibodies against mouse macrophage iNOS and [^125I]-labeled protein A (Singh et al., 1988).
RNA isolation, Northern blot analysis, and reverse-transcriptase coupled polymerase chain reaction (RT-PCR) Stimulated peritoneal macrophages were taken out from culture dishes directly by adding Ultraspec-II RNA reagent (Biotecx Laboratories Inc.) and total RNA was isolated according to the manufacturer's protocol. For northern blot analyses, 20 μg of total RNA was electrophoresed on 1.2% denaturing formaldehyde-agarose gels, electrotransferred to Hybond-Nylon Membrane (Amersham) and hybridized at 68° C. with ^32P-labeled cDNA probe using Express Hyb hybridization solution (Clontech) as described by the manufacturer. […]; After hybridization filters were washed two to three times in solution I (2×SSC, 0.05% SDS) for 1 h at room temperature followed by solution II (0.1×SSC, 0.1% SDS) at 50° C. for another hour. The membranes were then dried and exposed to X-ray film (Kodak). The same filters were stripped and rehybridized with probes for GAPDH. The relative mRNA content for iNOS was measured after scanning the bands with a Biorad (Model GS-670) imaging densitometer.
Immunoblot analysis for iNOS Following 24 h incubation in the presence or absence of different stimuli, cells were scraped off, washed with Hank's buffer, and homogenized in 50 mM Tris-HCl (pH 7.4) containing protease inhibitors. After electrophoresis the proteins were transferred onto a nitrocellulose membrane, and the iNOS band was visualized by immunoblotting with antibodies against mouse macrophage iNOS and [^125I]-labeled protein A.
RNA isolation and Northern blot analysis Cells were taken out from culture dishes directly by adding Ultraspec-II RNA reagent (Biotecx Laboratories Inc.) and total RNA was isolated according to the manufacturer's protocol. For Northern blot analyses, 20 μg of total RNA was electrophoresed on 1.2% denaturing formaldehyde-agarose gels, electrotransferred to Hybond-Nylon Membrane (Amersham) and hybridized at 68° C. with ^32P-labeled cDNA probe using Express Hyb hybridization solution (Clontech) as described by the manufacturer. […]; After hybridization filters were washed two or three times in solution I (2×SSC, 0.05% SDS) for one hour at room temperature followed by solution II (0.1×SSC, 0.1% SDS) at 50° C. for another hour. The membranes were then dried and exposed with X-ray films (Kodak). The same filters were stripped and rehybridized with probes for GAPDH. The relative mRNA content for iNOS was measured after scanning the bands with a Biorad (Model GS-670) imaging densitometer.
Immunoblot analysis for iNOS After a 24 h incubation in the presence or absence of different stimuli, cells were scraped off, washed with Hank's buffer, and homogenized in 50 mM Tris-HCl (pH 7.4) containing protease inhibitors (1 mM PMSF, 5 μg/ml aprotinin, 5 μg/ml pepstatin A, and 5 μg/ml leupeptin). After electrophoresis the proteins were transferred onto a nitrocellulose membrane, and the iNOS band was visualized by immunoblotting with antibodies against mouse macrophage iNOS and [^125I]-labeled protein A.
RNA isolation and Northern blot analysis Cells were taken out from culture dishes directly by adding Ultraspec-II RNA reagent (Biotecx Laboratories Inc., Houston, Tex.), and total RNA was isolated according to the manufacturer's protocol. […]
In general terms: Immunoblotting shows a protein as a band on a membrane.

The test system of assay [9] is murine macrophage cell line RAW 264.7. As to the kind of experiment: LPS-/cytokine-induced NO production and iNOS protein in RAW 264.7. Format: cell-based. The note with it: 24 h. Here is the method:
Cells in this study were incubated in serum-free DMEM/F-12 received calyculin A along with LPS and cytokines. Samples tested included control, LPS+TNF-α, TNF-α+IFN-γ, TNF-α+IL-1β, LPS+TNF-α+calyculin A, TNF-α+IFN-γ+calyculin A, and TNF-α+IL-1β+calyculin A. After 24 h, concentration of nitrite (nmol/mg/24 h) was measured in the supernatants as described in Example 6. Data are mean±S.D. of three different studies. Cell homogenates were electrophoresed, transferred on […] against mouse macrophage iNOS as described.

`C=C1[C@@H](O)[C@@H]2O[C@]3(CC[C@H](/C=C/[C@@H](C)[C@@H]4CC(C)=C[C@@]5(O[C@H](C[C@@](C)(O)C(=O)O)CC[C@H]5O)O4)O3)CC[C@H]2O[C@@H]1[C@@H](O)C[C@H](C)[C@H]1O[C@@]2(CCCCO2)CC[C@H]1C` [Okadaic acid]: the TNF-α in assay [1] (inhibitor 5 nM) was found to be 10.8 ± 1.2 ng/24 h/mg protein; in [1] (inhibitor 10 nM), 14.6 ± 1.8 ng/24 h/mg protein; in assay [5] (inhibitor 5 nM) it was 24.3 ± 1.9 ng/24 h/mg protein; in assay [5] (inhibitor 10 nM), 28.9 ± 3.4 ng/24 h/mg protein. Also, the “activities of PP 1/2A” value in assay [2] is listed as “dose-dependently inhibited the activities of PP 1/2A”. Also, the “LPS-induced iNOS promoter-derived CAT activity” value in [3] is recorded as “stimulated the LPS-induced CAT activity in astrocytes”; in assay [4] it was “inhibited the LPS-induced CAT activity in macrophages”.
With `COC[C@@H]([C@H](O)[C@H](O)C(=O)NCC[C@H](C)c1nc(/C=C/C[C@@H]2O[C@]3(C[C@@H](O)[C@@H]2C)O[C@H]([C@H](C[C@H](O)[C@H](C)[C@H](O)[C@H](C)/C=C(C)/C(C)=C/C=C/C(C)=C\C#N)OC)[C@H](OP(=O)(O)O)C3(C)C)co1)N(C)C` [Calyculin A], in assay [6], the “LPS-induced NO production” value was “inhibited the LPS-induced NO production in rat peritoneal macrophages”. Besides, the “stimulation of the production of NO” value in assay [7] is reported as “more than three fold”. The TNF-α in [1] (inhibitor 1 nM) is listed as 12.5 ± 1.6 ng/24 h/mg protein; in assay [1] (inhibitor 2 nM), 16.9 ± 2.1 ng/24 h/mg protein; in assay [5] (inhibitor 1 nM) it was 27.5 ± 3.1 ng/24 h/mg protein; in [5] (inhibitor 2 nM), 31.2 ± 3.6 ng/24 h/mg protein. Further, the “LPS-mediated induction of iNOS protein and mRNA” value in assay [8] was “enhanced the LPS-mediated induction of iNOS protein and mRNA”. Also, the “activities of PP 1/2A” value in assay [2] is recorded as “also inhibited the activities of PP 1/2A”. Moreover, the “LPS- and cytokine-induced production of NO and iNOS protein” value in [9] was “inhibit the LPS- and cytokine-induced production of NO and the expression of iNOS protein”.

The record behind these values is US8507219B2, “Method of treating inflammation with statins” (MUSC Foundation for Research Development, priority 1997, dated 2013).
